According to patent publication US4333938A, “Imino derivatives of 5-aminobenzodioxole-1,3 which are useful as medicaments” (Laboratoires Sarget, priority 1979, dated 1982):

Legend:
phenylbenzoquinone (PBQ) = assay: analgesic activity, phenylbenzoquinone (PBQ) challenge; assay type: in vivo; conditions: male Swiss mouse, oral
Description: The analgesic activity was determined in the male Swiss mouse using phenylbenzoquinone (PBQ) as the challenging agent (variation of the method of Siegmund et al, Proc. Soc. Exp. Biol. Med. […], 95, 729-31). […] The ED50 was determined by the method of Lichfield and Wilcoxon.

solubility in water = assay type: physicochemical
[1] = oral toxicity (mortality) in the Wistar rat; assay type: in vivo; conditions: in vivo, 3000 mg/kg
Description: The percentages of mortality produced by the compounds of this invention when administered orally to Swiss mice are shown in Table 1. The animals, free from specific pathogenic organisms were housed in an air conditioned room for 24 to 48 hours before the start of the experiment. They were separated into groups of 5 males and 5 females. The materials were administered to animals which had been fasted for 24 hours by means of a gastric tube in suspension in a 6% thickened julep using a volume equivalent to 0.1 ml per 10 g of body weight. […] They remained under observation for two weeks before being sacrificed and autopsied.
The toxicities of the compounds of Examples 2 and 3 were determined in the Wistar rat. The protocol which was followed was the same as that described for the mice, except that the compounds were administered in a volume equivalent to 0.5 ml per 100 g of body weight of rat. […] The product of Example 3 produced no mortality at 2000 mg/kg and 20% mortality at 3000 mg/kg.

SMILES	% analgesic activity (phenylbenzoquinone (PBQ); 100 mg/kg)	% analgesic activity (phenylbenzoquinone (PBQ); 200 mg/kg)	% analgesic activity (phenylbenzoquinone (PBQ); 250 mg/kg)	% analgesic activity (phenylbenzoquinone (PBQ); 300 mg/kg)	solubility in water (solubility in water)	% analgesic activity (phenylbenzoquinone (PBQ); 50 mg/kg)	ED50 (phenylbenzoquinone (PBQ); method of Lichfield and Wilcoxon)	mortality at 336 h [1]
Cc1ccc(C=Nc2ccc3c(c2)OCO3)s1 [Example 2, N-(5-methyl-2-thienylidene)-5-aminobenzodioxole-1,3]	19%	49%	51%	40%	insoluble in water	–	–	–
C(=Nc1ccc2c(c1)OCO2)c1cccnc1 [Example 3, N-(3-pyridylidene)-5-aminobenzodioxole-1,3]	44%	65%	–	92%	insoluble in water	23%	110 mg/kg	20%
